Measurements: US11957680B2, “Pyruvate kinase activators for use in treating blood disorders” (Agios Pharmaceuticals, Inc., priority 2017, dated 2024)

How the values were obtained:
[1] = target: T1, wild type PKR (Homo sapiens, UniProt P30613); test: PKR (wild type) enzyme AC50 assay, LDH/NADH-coupled, absorbance at 340 nm; type: biochemical; settings: Table 2; enzyme assay; read-out: PKR WT AC50
In short: (§1)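 LDH/NADH-coupled read-out at 340 nm after ADP (0.2-1.65 mM) addition at room temperature. Beforehand, wild-type, K410E or R510Q human PKR (40-400 ng/well) sat 60 min with compound (top 100 μM, 3-fold, 11 points) plus PEP 0.1-0.5 mM, 180 μM NADH in 50 mM Tris pH 7.5, 100 mM KCl, 5 mM MgCl2, 1 mM DTT, 0.03% BSA.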

[2] = target: T1, wild type PKR; test: Cell based ATP assay in purified red blood cells (Cell-Titer-Glo); set-up: endogenous in cells; host or cells: purified red blood cells from healthy volunteers; settings: Table 2; RBCs, overnight at 37° C., ATP levels
In short: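 ATP levels were quantified by Cell-Titer-Glo after overnight 37 °C exposure of cells to compound (1:4 dilution series, 0.1% DMSO final). The cells were human erythrocytes, filter-purified to remove leukocytes and plated at 1×10^7 cells/mL in AGAM medium.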

[3] = target: PKR K410E (Homo sapiens, UniProt P30613, K410E); test: PKR mutant assay (K410E), AC50, LDH/NADH-coupled, absorbance at 340 nm; type: biochemical; settings: Table 2; enzyme assay
Chain of PKR K410E (P30613 whole entry K410E): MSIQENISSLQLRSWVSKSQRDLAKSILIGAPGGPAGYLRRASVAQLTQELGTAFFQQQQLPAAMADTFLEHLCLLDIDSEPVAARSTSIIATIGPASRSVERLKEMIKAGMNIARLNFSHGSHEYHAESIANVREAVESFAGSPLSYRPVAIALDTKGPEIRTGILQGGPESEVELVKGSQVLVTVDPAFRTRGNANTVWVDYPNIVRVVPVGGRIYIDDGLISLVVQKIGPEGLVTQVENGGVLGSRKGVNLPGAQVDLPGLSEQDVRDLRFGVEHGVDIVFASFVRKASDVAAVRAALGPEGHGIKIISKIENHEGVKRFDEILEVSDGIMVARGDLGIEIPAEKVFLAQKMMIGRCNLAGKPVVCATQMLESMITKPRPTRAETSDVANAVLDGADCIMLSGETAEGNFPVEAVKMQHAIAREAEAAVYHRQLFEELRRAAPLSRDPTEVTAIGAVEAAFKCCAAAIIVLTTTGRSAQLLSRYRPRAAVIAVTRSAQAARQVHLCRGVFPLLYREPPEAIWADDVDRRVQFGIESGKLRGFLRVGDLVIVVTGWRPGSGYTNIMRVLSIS
In short: as §1

[4] = target: PKR R510Q (Homo sapiens, UniProt P30613, R510Q); test: PKR mutant assay (R510Q), AC50, LDH/NADH-coupled, absorbance at 340 nm; type: biochemical; settings: Table 2, enzyme assay; for AC50: read-out: PK R510Q AC50
Chain of PKR R510Q (P30613 whole entry R510Q): as the sequence (P30613 whole entry K410E) above, with E410K, R510Q counted along it
In short: as §1

T1 sequence (P30613 whole entry): as the sequence (P30613 whole entry K410E) above, with E410K counted along it

Row | SMILES | AC50 [1] [nM] | AC50 [2] [nM] | AC50 [3] [nM] | AC50 [4] [nM] | Cell based ATP assay AC50 [2] | PK R510Q AC50 [4]
1 | Cn1c2nc(C(O)c3ccccc3)sc2c2cnn(Cc3cccc4[nH]ncc34)c(=O)c21 (stereo not drawn) [Compound 117] | < 300 | > 1000 | < 300 | 301 to 800 |  | 
2 | Cn1c2nc(Cc3cccc(CO)c3)sc2c2cnn(Cc3cccc4[nH]ncc34)c(=O)c21 [Compound 118] | < 300 | > 1000 | < 300 | < 300 |  | 
3 | CC(c1ccccc1)c1nc2c(s1)c1cnn(Cc3cccc4[nH]ncc34)c(=O)c1n2C (stereo not drawn) [Compound 119] | < 300 | ≤ 1000 | < 300 | < 300 |  | 
4 | CC(c1ccccc1)c1nc2c(s1)c1cnn(Cc3cccc4c3cnn4C)c(=O)c1n2C (stereo not drawn) [Compound 120] | 301 to 800 | ≤ 1000 | 301 to 800 | 301 to 800 |  | 
5 | Cn1c2nc(SCc3ccccc3)sc2c2cnn(Cc3cccc4[nH]ncc34)c(=O)c21 [Compound 121] | 301 to 800 | > 1000 | > 800 | 301 to 800 |  | 
6 | Cn1c2nc(Cc3cc[nH]n3)sc2c2cnn(Cc3ccc4c(c3)OCCO4)c(=O)c21 [Compound 122] | < 300 | ≤ 1000 | < 300 | < 300 |  | 
7 | COc1ccc(Cn2ncc3c4sc(Cc5cc[nH]n5)nc4n(C)c3c2=O)cc1 [Compound 123] | < 300 | ≤ 1000 | < 300 | < 300 |  | 
8 | Cn1c2nc(CCO)sc2c2cnn(Cc3cccc4[nH]ncc34)c(=O)c21 [Compound 124] | < 300 | ≤ 1000 | < 300 | < 300 |  | 
9 | CNCc1nc2c(s1)c1cnn(Cc3cccc4[nH]ncc34)c(=O)c1n2C [Compound 125] | > 800 | > 1000 | > 800 | 301 to 800 |  | 
10 | Cn1c2nc(C(C)(O)c3ccccc3)sc2c2cnn(Cc3cccc4[nH]ncc34)c(=O)c21 (stereo not drawn) [Compound 126] | < 300 | ≤ 1000 | < 300 | < 300 |  | 
11 | Cn1c2nc(C(C(N)=O)c3ccccc3)sc2c2cnn(Cc3cccc4[nH]ncc34)c(=O)c21 (stereo not drawn) [Compound 127] | < 300 | ≤ 1000 | < 300 | < 300 |  | 
12 | Cn1c2nc(S(=O)(=O)Cc3ccccc3)sc2c2cnn(Cc3cccc4[nH]ncc34)c(=O)c21 [Compound 128] | < 300 | > 1000 | 301 to 800 | 301 to 800 |  | 
13 | CSc1nc2c(s1)c1cnn(Cc3csc(-n4c(C)ccc4C)n3)c(=O)c1n2C [Compound 129] | > 800 | > 1000 | > 800 | > 800 |  | 
14 | Cn1c2nc(C(O)c3ccccn3)sc2c2cnn(Cc3cccc4[nH]ncc34)c(=O)c21 (stereo not drawn) [Compound 130] | > 800 | ≤ 1000 | > 800 | 301 to 800 |  | 
15 | COC(=O)Cc1nc2c(s1)c1cnn(Cc3cccc4[nH]ncc34)c(=O)c1n2C [Compound 131] | 301 to 800 | > 1000 | < 300 | < 300 |  | 
16 | Cn1c2nc(CN)sc2c2cnn(Cc3cccc4[nH]ncc34)c(=O)c21 [Compound 132] | > 800 | > 1000 | 301 to 800 | 301 to 800 |  | 
17 | Cn1c2nc(C(c3cccc4[nH]ncc34)S(=O)(=O)c3ccccc3)sc2c2cnn(Cc3cccc4[nH]ncc34)c(=O)c21 (stereo not drawn) [Compound 133] | > 800 | > 1000 | > 800 | > 800 |  | 
18 | COC(=O)C(c1ccccc1)c1nc2c(s1)c1cnn(Cc3cccc4[nH]ncc34)c(=O)c1n2C (stereo not drawn) [Compound 134] | > 800 | > 1000 | < 300 | 301 to 800 |  | 
19 | Cn1c2nc(Nc3ccccc3)sc2c2cnn(Cc3cccc4[nH]ncc34)c(=O)c21 [Compound 135] | > 800 |  | > 800 |  | No Fit | No Fit
20 | Cn1c2nc(C(N)c3ccccc3)sc2c2cnn(Cc3cccc4[nH]ncc34)c(=O)c21 (stereo not drawn) [Compound 136] | < 300 | ≤ 1000 | < 300 | < 300 |  | 
21 | Cn1c2nc(CC(N)=O)sc2c2cnn(Cc3cccc4[nH]ncc34)c(=O)c21 [Compound 137] | 301 to 800 | > 1000 | < 300 | < 300 |  | 
22 | Cn1c2nc(C(=O)NO)sc2c2cnn(Cc3cccc4[nH]ncc34)c(=O)c21 [Compound 138] | 301 to 800 | > 1000 | < 300 | 301 to 800 |  | 
23 | CC(=O)NCc1nc2c(s1)c1cnn(Cc3cccc4[nH]ncc34)c(=O)c1n2C [Compound 139] | < 300 | ≤ 1000 | < 300 | < 300 |  | 

Row | SMILES | AC50 [1] [nM] | AC50 [2] [nM] | AC50 [3] [nM] | AC50 [4] [nM] | Cell based ATP assay AC50 [2] | PK R510Q AC50 [4]
24 | Cn1c2nc(C3(c4ccccc4)CC3)sc2c2cnn(Cc3cccc4[nH]ncc34)c(=O)c21 [Compound 140] | > 800 | > 1000 | > 800 | > 800 |  | 
25 | Cn1c2nc(S(N)(=O)=O)sc2c2cnn(Cc3cccc4[nH]ncc34)c(=O)c21 [Compound 141] | < 300 | ≤ 1000 | < 300 | < 300 |  | 
26 | Cn1c2nc(CNS(C)(=O)=O)sc2c2cnn(Cc3cccc4[nH]ncc34)c(=O)c21 [Compound 142] | < 300 | ≤ 1000 | < 300 | 301 to 800 |  | 
27 | Cn1c2nc(Cc3cccc4[nH]ncc34)sc2c2cnn(Cc3cccc4[nH]ncc34)c(=O)c21 [Compound 143] | < 300 | > 1000 | < 300 | < 300 |  | 
28 | COc1cccc(Cn2ncc3c4sc(Cc5cc[nH]n5)nc4n(C)c3c2=O)c1 [Compound 144] | < 300 | ≤ 1000 | < 300 | < 300 |  | 
29 | Cn1c2nc(C#N)sc2c2cnn(Cc3csc(N)n3)c(=O)c21 [Compound 145] | 301 to 800 | > 1000 | 301 to 800 | > 800 |  | 
30 | Cn1c2nc(C(N)=O)sc2c2cnn(Cc3csc(N)n3)c(=O)c21 [Compound 146] | 301 to 800 | ≤ 1000 | < 300 | 301 to 800 |  | 
31 | Cn1c2nc(C#N)sc2c2cnn(Cc3cccc(N)n3)c(=O)c21 [Compound 147] | < 300 | ≤ 1000 | < 300 | 301 to 800 |  | 
32 | Cn1c2nc(C(O)c3cc[nH]n3)sc2c2cnn(Cc3cccc4[nH]ncc34)c(=O)c21 (stereo not drawn) [Compound 148] | < 300 | ≤ 1000 | < 300 | < 300 |  | 
33 | Cn1c2nc(NCc3ccccc3)sc2c2cnn(Cc3cccc4[nH]ncc34)c(=O)c21 [Compound 149] | 301 to 800 | > 1000 | 301 to 800 | 301 to 800 |  | 
34 | Cn1c2nc(Cc3ccc(Cl)nc3)sc2c2cnn(Cc3cccc4[nH]ncc34)c(=O)c21 [Compound 150] | > 800 | > 1000 | > 800 | > 800 |  | 
35 | Cn1c2nc(Cc3ccccn3)sc2c2cnn(Cc3cccc4[nH]ncc34)c(=O)c21 [Compound 151] | < 300 | ≤ 1000 | < 300 | < 300 |  | 
36 | Cn1c2nc(C(O)(C(N)=O)c3ccccc3)sc2c2cnn(Cc3cccc4[nH]ncc34)c(=O)c21 (stereo not drawn) [Compound 152] | 301 to 800 | ≤ 1000 | < 300 | 301 to 800 |  | 
37 | Cn1c2nc(Cc3cncnc3)sc2c2cnn(Cc3cccc4[nH]ncc34)c(=O)c21 [Compound 153] | > 800 | ≤ 1000 | > 800 | > 800 |  | 
38 | Cn1c2nc(Cc3ccc4[nH]ncc4c3)sc2c2cnn(Cc3cccc4[nH]ncc34)c(=O)c21 [Compound 154] | < 300 | ≤ 1000 | < 300 | < 300 |  | 
39 | Cn1c2nc(Cc3cccc(S(N)(=O)=O)c3)sc2c2cnn(Cc3cccc4[nH]ncc34)c(=O)c21 [Compound 155] | 301 to 800 | ≤ 1000 | < 300 | < 300 |  | 
40 | Cn1c2nc(Cc3ccc4cn[nH]c4c3)sc2c2cnn(Cc3cccc4[nH]ncc34)c(=O)c21 [Compound 156] | 301 to 800 | ≤ 1000 | < 300 | < 300 |  | 
41 | Cn1ccc(Cc2nc3c(s2)c2cnn(Cc4cccc5[nH]ncc45)c(=O)c2n3C)n1 [Compound 157] | < 300 | ≤ 1000 | < 300 | < 300 |  | 
42 | Cn1c2nc(C(N)=O)sc2c2cnn(Cc3cccc(N)n3)c(=O)c21 [Compound 158] | < 300 | ≤ 1000 | < 300 | < 300 |  | 
43 | Cc1cccc(Cc2nc3c(s2)c2cnn(Cc4cccc5[nH]ncc45)c(=O)c2n3C)n1 [Compound 159] | < 300 | ≤ 1000 | < 300 | < 300 |  | 
44 | Cn1c2nc(Cc3cc(C(F)(F)F)[nH]n3)sc2c2cnn(Cc3cccc4[nH]ncc34)c(=O)c21 [Compound 160] | 301 to 800 | ≤ 1000 | 301 to 800 | 301 to 800 |  | 
45 | Cn1c2nc(Cc3ccncc3)sc2c2cnn(Cc3cccc4[nH]ncc34)c(=O)c21 [Compound 161] | > 800 | > 1000 | > 800 | > 800 |  | 
